According to patent publication US9566307B2, “Pharmaceutical composition” (priority 2012, dated 2017):
Residues, ends and D or L forms follow the SMILES beside them. *: point of attachment. Cbz = O=C(OCc1ccccc1)*; CH2F = FC*

What was measured:
[1] = system: TE8 tumor indicating a resistivity against CDDP; assay: In vivo antitumor effect of EV4 type to CDDP resistant tumor, tumor volume; set-up: species or system nude mouse; conditions: CDDP administered group, 125 μg/administration in abdominal cavity on second day; FIG. 10
Procedure: The tumor refraction performance of EV4 type to a TE8 bearing nude mouse indicating a resistivity against CDDP (also called cisplatin) utilized in chemotherapies for esophageal cancer was examined. A nude mouse was inoculated with TE8 like the fifth example (0th day), and when it was confirmed that the tumor major axis became equal to or greater than 4 mm, CDDP dissolved in a normal saline solution was administered in an abdominal cavity at 125 μg/administration (second day). Note that for a non-treated group, the same amount of normal saline solution was administered. Eight days after the inoculation of TE8, furthermore, an EV4 type solution suspended in OPTI-MEM I of 50 μl was administered in the tumor once per a day and at a total of five times and at 1×10^7 TCID50/administration or 5×10^7 TCID50/administration. For the non-treated group and the CDDP administered group, the same amount of OPTI-MEM I was administered. The evaluation items were the tumor volume and the body weight like the fourth example.

[2] = system: T.Tn (esophageal cancer cell line); assay: Effects of various inhibitors to cytotoxicity of EV4 type (1), microscope images; assay type: cell-based, human; conditions: EV4 type MOI=0.1, four days after infection, 100 μM Z-VADfmk, 25 μM LY294002, 0.1 μM PD0325901, 1.0 μM bpV, FIG. 2
Procedure: The inhibitors tested to check the effects to the cytotoxicity of EV4 type were Z-VADfmk (R&D System Corporation) as a pan-caspase inhibitor, LY294002 (Santa Cruz Biotechnology Corporation) as a PI3K inhibitor, PD0325901 (Wako Corporation) as an MEK inhibitor, and bpV (Merck Corporation) as a PTEN inhibitor.
T.Tn was disseminated in a plate with 96 wells at 1×10^4 cells/well, and the plate was left stationary under a condition of 37° C. and 5% CO2. The culture medium in the well was replaced with a culture medium added with each inhibitor so as to be 100 μl/well. As to the concentrations of the respective inhibitors, 100 μM for Z-VADfmk, 25 μM for LY294002, 0.1 μM for PD0325901, and 1.0 μM for bpV. After the culture medium was replaced, the plate was left stationary under a condition of 37° C. and 5% CO2 for one hour. After the culture medium was eliminated, 100 μl of the diluted solution of EV4 type diluted with OPTI-MEM I so as to make EV4 type to be MOI=0.1 was added to each well, and was left stationary under a condition of 37° C. and 5% CO2 for one hour. Next, the diluted solution of EV4 type was eliminated, and the RPMI culture media containing the respective inhibitors were added to respective wells, and were co-cultured. Four days after the start of co-culturing, the image of each well was picked up by an optical microscope. Note that the concentration of each inhibitor was set to be a concentration expected not showing a cytotoxicity to T.Tn.

TE8 cells = assay: Effect of MEK inhibitor to cytotoxicity of EV4 type (2), Celltilter-Glo living cell quantitation; assay type: cell-based, human; conditions: EV4 type MOI=1.0, PD0325901 50-nM, 48 hours co-culturing, FIG. 3
Procedure: An effect of an MEK inhibitor PD0325901 to the cytotoxicity of EV4 type was quantitatively examined.
TE8 cells was disseminated in a plate with 96 wells at 1×10^4 cells/well, and the plate was left stationary for six hours under a condition of 37° C. and 5% CO2. The culture medium in the well was replaced with a culture medium containing a DMSO solution of PD0325901 of 50-nM. After the culture medium was replaced, the plate was left stationary for one hour under a condition of 37° C. and 5% CO2. After the culture medium was eliminated, 100 μl of EV4 type diluted solution diluted with OPTI-MEM I so as to have MOI=1.0 was added to each well, and the plate was left stationary for one hour under a condition of 37° C. and 5% CO2. For a control, a diluted solution of 100 μl containing no EV4 type was added. Next, the diluted solution was eliminated, and the culture media containing PD0325901 were added to respective wells, and were co-cultured. 48 hours after the start of co-culturing, living cells were quantitated using a Celltilter-Glo (Registered Trademark) kit of Promega corporation.

HT29 = assay: Oxaliplatin resistance check, cell survival rate by MTS technique; assay type: cell-based, human; conditions: HT29, oxaliplatin 100 μM, 48 hours; FIG. 17
Procedure: (§1) In addition, in order to check the oxaliplatin resistance of, among the test-target cells, WiDr and HT29, respective cell survival rates of WiDr and HT29 after cultured for 48 hours in culture media containing oxaliplatin of a predetermined concentration were evaluated through an MTS technique.

WiDr = assay: as above; assay type: cell-based, human; conditions: oxaliplatin 200 μM, 48 hours, FIG. 17
Procedure: as §1

Row | Molecule | Effect of inhibitor on the cytotoxicity by EV4 type [2] | other results
1 | [NH2][Pt]([NH2])([Cl])[Cl] [CDDP, cisplatin] |  | Tumor volume, change with time [1]: suppression of the increase of the tumor volume for eight days, but the increase of the tumor volume was observed thereafter
2 | O=C(NOC[C@H](O)CO)c1ccc(F)c(F)c1Nc1ccc(I)cc1F [PD0325901] | enhanced | Effect of inhibitor on the cytotoxicity of EV4 type (cell survival rate) (TE8 cells): significantly enhanced
3 | bpV | reduced | 
4 | O=c1cc(N2CCOCC2)oc2c(-c3ccccc3)cccc12 [LY294002] | enhanced | 
5 | O=C1[O][Pt]2([NH][C@@H]3CCCC[C@H]3[NH]2)[O]C1=O [oxaliplatin] |  | Cell survival rate (HT29): maintained the similar level of cell survival rate to those of the control group; Cell survival rate (WiDr): maintained the similar level of cell survival rate to those of the control group
6 | COC(=O)C[C@H](NC(=O)[C@H](C)NC(=O)[C@@H](NC(=O)OCc1ccccc1)C(C)C)C(=O)CF [Z-VADfmk] (Cbz-Val-Ala-Asp(OMe)-CH2F) | reduced | 
